From patent publication US20220356186A1, “PERK INHIBITING PYRROLOPYRIMIDINE COMPOUNDS” (HiberCell, Inc., priority 2019, published 2022)
Read-outs that look alike come from different tables or passages of the source.

What was measured:
[1] = target: T1, EIF2AK3 (PERK) catalytic domain (amino acids 536-1116) (Homo sapiens, UniProt Q9NZJ5); test: PERK in vitro activity assay (isolated), TR-FRET kinase assay; format: biochemical; conditions: isolated PERK enzyme, 1.5 μM ATP; read-out: Biochemical IC50
T1 construct: EIF2AK3 (PERK) catalytic domain (amino acids 536-1116)
T1 sequence (Q9NZJ5 536-1116): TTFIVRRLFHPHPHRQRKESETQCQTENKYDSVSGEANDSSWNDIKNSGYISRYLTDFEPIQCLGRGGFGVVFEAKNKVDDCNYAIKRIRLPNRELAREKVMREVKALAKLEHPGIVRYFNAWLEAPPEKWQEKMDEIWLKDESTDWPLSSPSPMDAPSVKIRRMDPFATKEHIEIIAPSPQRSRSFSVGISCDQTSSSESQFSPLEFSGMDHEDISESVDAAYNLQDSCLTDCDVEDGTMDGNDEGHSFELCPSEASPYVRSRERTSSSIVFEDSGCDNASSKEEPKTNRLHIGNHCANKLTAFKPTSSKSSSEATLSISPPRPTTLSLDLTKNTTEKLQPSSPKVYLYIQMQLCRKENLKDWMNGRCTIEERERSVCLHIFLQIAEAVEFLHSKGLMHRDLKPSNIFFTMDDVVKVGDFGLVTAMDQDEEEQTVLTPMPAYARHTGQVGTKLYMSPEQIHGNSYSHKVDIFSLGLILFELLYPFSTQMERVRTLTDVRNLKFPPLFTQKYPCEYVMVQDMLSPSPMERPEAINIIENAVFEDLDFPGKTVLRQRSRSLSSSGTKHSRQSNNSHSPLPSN
From the text: PERK In Vitro Activity Assay (Isolated):
In vitro Inhibition of PERK Enzyme Activity (isolated) Recombinant human EIF2AK2 (PKR) catalytic domain (amino acids 252-551), EIF2AK3 (PERK) catalytic domain (amino acids 536-1116), GFP-eIF2a substrate, and Terbium-labelled phospho-eIF2a antibody is obtained (Invitrogen, Carlsbad, Calif.).
Express and purify HIS-SUMO-GCN2 catalytic domain (amino acids 584-1019) from E. coli. Perform TR-FRET kinase assays in the absence or presence of inhibitors in a reaction buffer consisting of 50 mM HEPES, pH 7.5, 10 mM MgCb, 1.0 mM EGTA, and 0.01% Brij-35, and 100-200 nM GFP-eIF2a substrate. […] Add test compound, initiate the reaction by addition of enzyme, and incubate at room temperature for 45 minutes. Stop the reaction by addition of EDTA to a final concentration of 10 mM, add Terbium-labelled phospho-eIF2a antibody at a final concentration of 2 nM, and incubate for 90 minutes. Monitor the resulting fluorescence in an EnVison® Multilabel reader (PerkinElmer, Waltham, Mass.). Determine TR-FRET ratios and the resulting IC50 values using a 4-parameter nonlinear logistic equation as shown: Y=(A+((B−A)/(1+((C/x)[…])))) where, Y=% specific inhibition, A=Bottom of the curve, B=Top of the curve, C=absolute IC50 (concentration causing 50% inhibition), and D=hill slope.

[2] = test system: GFP-eIF2α in HEK293 cells; test: PERK cellular assay, TR-FRET in HEK293-EGFP-eIF2a cells after tunicamycin-induced ER stress; format: cell-based; conditions: HEK293-EGFP-eIF2a cells, tunicamycin 2 hours, read-out: Cellular eIF2α IC50
Experimental: Stable cell lines were created in HEK293 cells using lentiviral particles harboring an expression vector for GFP-eIF2α. Cells were selected using puromycin and enriched using fluorescence activated cell sorting against GFP. HEK293-EGFP-eIF2a cells were plated at 5000 cells/well in 384-well assay plates and incubated overnight at 37° C., 5% CO2. Inhibitor compounds were added to the wells by Echo acoustic dispensing and incubated for 30 minutes at 37° C., 5% CO2 prior to induction of ER stress by addition of tunicamycin to […] for 2 hours. Cells were lysed and TR-FRET was measured in an EnVision plate reader (PerkinElmer). FRET ratio data was normalized to signal from lysates treated with DMSO vehicle control and plotted as percent inhibition against 10-point; 3-fold dilution series of inhibitors. IC50 values were calculated using 4-parameter logistical fitting in XLFit.

SMILES | IC50 [1] | IC50 ([2]; Homo sapiens, HEK293, 2 h) | IC50 [2]
Cc1cc(NC(=O)C(F)(F)c2ccccc2)ccc1-c1cn(C)c2ncnc(N)c12 [Example 28, N-(4-(4-amino-7-methyl-7H-pyrrolo[2,3-d]pyrimidin-5-yl)-3-methylphenyl)-2,2-difluoro-2-phenylacetamide] | 251 to 500 nM | 501 to 1000 nM | 
Cc1nc(N)c2c(-c3ccc(NC(=O)C(O)c4ccccc4F)cc3C)cn(C)c2n1 (centres unmarked) [Example 32, N-(4-(4-amino-2,7-dimethyl-7H-pyrrolo[2,3-d]pyrimidin-5-yl)-3-methylphenyl)-2-(2-fluorophenyl)-2-hydroxyacetamide] | 101 to 250 nM | 251 to 500 nM | 
Cc1nc(N)c2c(-c3ccc(NC(=O)C(O)c4ccccc4Cl)cc3C)cn(C)c2n1 (centres unmarked) [Example 34, N-(4-(4-amino-2,7-dimethyl-7H-pyrrolo[2,3-d]pyrimidin-5-yl)-3-methylphenyl)-2-(2-chlorophenyl)-2-hydroxyacetamide] | 101 to 250 nM | 501 to 1000 nM | 
Cc1nc(N)c2c(-c3ccc(NC(=O)C(O)c4cccc(Cl)c4)cc3C)cn(C)c2n1 (centres unmarked) [Example 38, N-(4-(4-amino-2,7-dimethyl-7H-pyrrolo[2,3-d]pyrimidin-5-yl)-3-methylphenyl)-2-(3-chlorophenyl)-2-hydroxyacetamide] | 51 to 100 nM |  | 501 to 1000 nM
Cc1cc(NC(=O)C(O)c2ccccc2C)ccc1-c1cn(C)c2ncnc(N)c12 (centres unmarked) [Example 39, N-(4-(4-amino-7-methyl-7H-pyrrolo[2,3-d]pyrimidin-5-yl)-3-methylphenyl)-2-hydroxy-2-(o-tolyl)acetamide] | 1 to 25 nM | 26 to 50 nM | 

The next lines start with results.

IC50 [1] | SMILES | IC50 ([2]; Homo sapiens, HEK293, 2 h) | IC50 [2]
1 to 25 nM | Cn1cc(-c2ccc(NC(=O)C(O)c3cccc(F)c3)cc2)c2c(N)ncnc21 (centres unmarked) [Example 29, N-(4-(4-amino-7-methyl-7H-pyrrolo[2,3-d]pyrimidin-5-yl)phenyl)-2-(3-fluorophenyl)-2-hydroxyacetamide] |  | 1 to 25 nM
1 to 25 nM | Cn1cc(-c2ccc(NC(=O)C(O)c3cccc(F)c3)cc2)c2c(N)ncnc21 (centres unmarked) [Example 30, N-(4-(4-amino-7-methyl-7H-pyrrolo[2,3-d]pyrimidin-5-yl)phenyl)-2-(3-fluorophenyl)-2-hydroxyacetamide] |  | 101 to 250 nM
1 to 25 nM | Cc1cc(NC(=O)C(O)c2ccccc2F)ccc1-c1cn(C)c2ncnc(N)c12 (centres unmarked) [Example 31, N-(4-(4-amino-7-methyl-7H-pyrrolo[2,3-d]pyrimidin-5-yl)-3-methylphenyl)-2-(2-fluorophenyl)-2-hydroxyacetamide] | 26 to 50 nM | 
1 to 25 nM | Cc1cc(NC(=O)C(O)c2ccccc2Cl)ccc1-c1cn(C)c2ncnc(N)c12 (centres unmarked) [Example 33, N-(4-(4-amino-7-methyl-7H-pyrrolo[2,3-d]pyrimidin-5-yl)-3-methylphenyl)-2-(2-chlorophenyl)-2-hydroxyacetamide] | 51 to 100 nM | 
1 to 25 nM | Cc1cc(NC(=O)C(O)c2cccc(Cl)c2)ccc1-c1cn(C)c2ncnc(N)c12 (centres unmarked) [Example 35, N-(4-(4-amino-7-methyl-7H-pyrrolo[2,3-d]pyrimidin-5-yl)-3-methylphenyl)-2-(3-chlorophenyl)-2-hydroxyacetamide] | 1 to 25 nM | 
1 to 25 nM | Cc1nc(N)c2c(-c3ccc(NC(=O)C(O)c4cccc(Cl)c4)cc3C)cn(C)c2n1 (centres unmarked) [Example 36, N-(4-(4-amino-2,7-dimethyl-7H-pyrrolo[2,3-d]pyrimidin-5-yl)-3-methylphenyl)-2-(3-chlorophenyl)-2-hydroxyacetamide] |  | 26 to 50 nM
1 to 25 nM | Cc1nc(N)c2c(-c3ccc(NC(=O)C(O)c4cccc(Cl)c4)cc3C)cn(C)c2n1 (centres unmarked) [Example 37, N-(4-(4-amino-2,7-dimethyl-7H-pyrrolo[2,3-d]pyrimidin-5-yl)-3-methylphenyl)-2-(3-chlorophenyl)-2-hydroxyacetamide] |  | 1 to 25 nM
26 to 50 nM | Cc1nc(N)c2c(-c3ccc(NC(=O)C(O)c4ccccc4C)cc3C)cn(C)c2n1 (centres unmarked) [Example 40, N-(4-(4-amino-2,7-dimethyl-7H-pyrrolo[2,3-d]pyrimidin-5-yl)-3-methylphenyl)-2-hydroxy-2-(o-tolyl)acetamide] | 101 to 250 nM | 
